Measured values taken from ChEMBL document CHEMBL1287786, “Synthesis, antimicrobial and antioxidant evaluation of quinolines and bis(indolyl)methanes” (2010).

Experiments:
Assay type in all cases: functional
Candida albicans = experiment: Antifungal activity against Candida albicans ATCC 10231 at 1000 ug/ml after 24 hrs by cup plate method; conditions: ATCC 10231, 24 h, read-out: IZ
[1] = test system: Radical scavenging activity; experiment: Antioxidant activity assessed as DPPH radical scavenging activity at 500 ug by spectrophotometry relative to control
Staphylococcus aureus = experiment: Antibacterial activity against Staphylococcus aureus ATCC 25923 at 1000 ug/ml after 24 hrs by cup plate method; conditions: ATCC 25923, 24 h, read-out: IZ
[2] = Antioxidant activity assessed as hydrogen peroxide radical scavenging activity after 10 mins by spectrophotometry relative to control; set-up: concentration or dose not given beside the values
[3] = Antioxidant activity assessed as hydrogen peroxide radical scavenging activity after 30 mins by spectrophotometry relative to control; set-up: concentration or dose not given beside the values
Escherichia coli = experiment: Antibacterial activity against Escherichia coli ATCC 25922 at 1000 ug/ml after 24 hrs by cup plate method; conditions: ATCC 25922, 24 h, read-out: IZ
[4] = test system: Radical scavenging activity; experiment: Antioxidant activity assessed as DPPH radical scavenging activity at 50 ug by spectrophotometry relative to control
[5] = Antioxidant activity assessed as hydrogen peroxide radical scavenging activity by spectrophotometry relative to control; set-up: concentration or dose not given beside the values
[6] = Antioxidant activity assessed as hydrogen peroxide radical scavenging activity after 40 mins by spectrophotometry relative to control; set-up: concentration or dose not given beside the values
[7] = Antioxidant activity assessed as hydrogen peroxide radical scavenging activity after 20 mins by spectrophotometry relative to control; set-up: concentration or dose not given beside the values
[8] = test system: Radical scavenging activity; experiment: Antioxidant activity assessed as DPPH radical scavenging activity at 1000 ug by spectrophotometry relative to control

SMILES | zone of inhibition at 1000 µg/mL (Candida albicans) [mm] | Activity [1] [%] | zone of inhibition at 1000 µg/mL (Staphylococcus aureus) [mm] | Activity [2] [%] | Activity [3] [%] | zone of inhibition at 1000 µg/mL (Escherichia coli) [mm] | Activity [4] [%] | Activity [5] [%] | Activity [6] [%] | Activity [7] [%] | Activity [8] [%]
C[C@@H]1[C@H](O)[C@@H](C)/C=C/C=C/C=C/C=C/C=C/C=C/C=C/[C@H](O[C@@H]2O[C@H](C)[C@@H](O)[C@H](N)[C@@H]2O)C[C@@H]2O[C@](O)(C[C@@H](O)C[C@@H](O)[C@H](O)CC[C@@H](O)C[C@@H](O)CC(=O)O[C@H]1C)C[C@H](O)[C@H]2C(=O)O [AMPHOTERICIN B] | 20 | – | – | – | – | – | – | – | – | – | –
c1ccc(-c2ccc(C(c3c(-c4ccccc4)[nH]c4ccccc34)c3c(-c4ccccc4)[nH]c4ccccc34)cc2)cc1 | 25 | 55 | 26 | 83 | 70 | 26 | 22 | 87 | 59 | 75 | 75
Brc1cc2c(cc1C(c1c(-c3ccccc3)[nH]c3ccccc13)c1c(-c3ccccc3)[nH]c3ccccc13)OCO2 | 24 | 23 | 25 | 43 | 30 | 23 | 10 | 57 | 21 | 39 | 42
O=C1O[C@H]([C@@H](O)CO)C(O)=C1O | – | 97 | – | – | – | – | 96 | – | – | – | 99
Clc1ccc2nc(-c3ccccc3)cc(-c3ccccc3)c2c1 | 16 | – | 21 | – | – | 18 | – | – | – | – | –
c1ccc(-c2cc(-c3ccccn3)nc3ccccc23)cc1 | 18 | – | 23 | – | – | 18 | – | – | – | – | –
O=C(O)c1ccc(C(c2c(-c3ccccc3)[nH]c3ccccc23)c2c(-c3ccccc3)[nH]c3ccccc23)cc1 | 16 | 48 | 24 | 45 | 35 | 19 | 17 | 60 | 24 | 45 | 80
Clc1nc2ccccc2cc1C(c1c(-c2ccccc2)[nH]c2ccccc12)c1c(-c2ccccc2)[nH]c2ccccc12 | 18 | 12 | 18 | 83 | 73 | 15 | 2 | 84 | 68 | 80 | 35
c1ccc(-c2cc(-c3ccccc3)c3ccccc3n2)cc1 | 13 | – | 18 | – | – | 17 | – | – | – | – | –
COc1cccc(-c2cc(-c3ccccc3)c3ccccc3n2)c1 | 14 | – | 21 | – | – | 23 | – | – | – | – | –
Cc1cc(C(C)(C)C)c(O)c(C(C)(C)C)c1 | – | – | – | 86 | 82 | – | – | 92 | 80 | 83 | –
c1ccc(-c2[nH]c3ccccc3c2C(c2cccc3ccccc23)c2c(-c3ccccc3)[nH]c3ccccc23)cc1 | 10 | 58 | 23 | 84 | 77 | 16 | 25 | 93 | 71 | 82 | 76
Cc1ccc(-c2cc(-c3ccccc3)c3ccccc3n2)cc1 | 19 | – | 24 | – | – | 17 | – | – | – | – | –
Cc1ccc(-c2cc(-c3ccccc3)c3cc(Cl)ccc3n2)cc1 | 23 | – | 22 | – | – | 22 | – | – | – | – | –
Cc1ccc2nc(-c3cccc(Br)c3)cc(-c3ccccc3)c2c1 | 21 | – | 24 | – | – | 22 | – | – | – | – | –
CCn1c2ccccc2c2cc(C(c3c(-c4ccccc4)[nH]c4ccccc34)c3c(-c4ccccc4)[nH]c4ccccc34)ccc21 | 24 | 42 | 24 | 80 | 75 | 23 | 15 | 85 | 65 | 82 | 73
COc1cc(Br)c(C(c2c(-c3ccccc3)[nH]c3ccccc23)c2c(-c3ccccc3)[nH]c3ccccc23)cc1OC | 16 | 52 | 12 | 85 | 72 | 14 | 21 | 86 | 69 | 74 | 69
Cc1cc(-c2ccccc2)nc2ccccc12 | 16 | – | 14 | – | – | 20 | – | – | – | – | –
Cc1ccccc1-c1cc(-c2ccccc2)c2ccccc2n1 | 15 | – | 15 | – | – | 18 | – | – | – | – | –
CCCCc1cc(-c2ccccc2)c2ccccc2n1 | 15 | – | 20 | – | – | 19 | – | – | – | – | –
c1ccc(-c2[nH]c3ccccc3c2C(c2ccc3c(c2)-c2ccccc2C3)c2c(-c3ccccc3)[nH]c3ccccc23)cc1 | 18 | 66 | 24 | 85 | 73 | 18 | 19 | 88 | 70 | 76 | 85
Cn1c(C(c2c(-c3ccccc3)[nH]c3ccccc23)c2c(-c3ccccc3)[nH]c3ccccc23)cc2ccccc21 | 14 | 63 | 13 | 35 | 20 | 16 | 19 | 43 | 16 | 21 | 76
COc1cc(C(c2c(-c3ccccc3)[nH]c3ccccc23)c2c(-c3ccccc3)[nH]c3ccccc23)cc(Br)c1O | 26 | 64 | 22 | 81 | 71 | 24 | 27 | 82 | 65 | 74 | 70
CCCCCc1ccc(-c2cc(C)c3ccccc3n2)cc1 | 18 | – | 21 | – | – | 18 | – | – | – | – | –
Brc1cccc(-c2cc(-c3ccccc3)c3ccccc3n2)c1 | 10 | – | 14 | – | – | 12 | – | – | – | – | –
Clc1ccc(-c2nn(-c3ccccc3)cc2C(c2c(-c3ccccc3)[nH]c3ccccc23)c2c(-c3ccccc3)[nH]c3ccccc23)cc1 | 12 | 65 | 19 | 82 | 80 | 15 | 21 | 83 | 79 | 81 | 87
